Data published in patent publication US20070105780A1, “Therapeutic agent for iNOS generating illness” (priority 2005, published 2007).
Entries after “also recorded” stand apart in the source; their conditions may differ. Where a SMILES comes first, the peptide text is derived from it. [ ]: non-standard residue; d: D form. The star is where a group is joined. Sta = CC(C)C[C@H](N)[C@@H](O)CC(=O)O; Isovaleryl = CC(C)CC(=O)*; Nle = CCCC[C@H](N)C(=O)O

Tests used:
calpain = target: T1, calpain (Mus musculus, UniProt O35350); conditions: supernatant fraction of dexamethasone treated, induced cell lysate; cited from earlier work
T1 construct: enzymatic activity of calpain in the supernatant fraction of the dexamethasone treated, induced cell lysate
T1 sequence (O35350 1-713): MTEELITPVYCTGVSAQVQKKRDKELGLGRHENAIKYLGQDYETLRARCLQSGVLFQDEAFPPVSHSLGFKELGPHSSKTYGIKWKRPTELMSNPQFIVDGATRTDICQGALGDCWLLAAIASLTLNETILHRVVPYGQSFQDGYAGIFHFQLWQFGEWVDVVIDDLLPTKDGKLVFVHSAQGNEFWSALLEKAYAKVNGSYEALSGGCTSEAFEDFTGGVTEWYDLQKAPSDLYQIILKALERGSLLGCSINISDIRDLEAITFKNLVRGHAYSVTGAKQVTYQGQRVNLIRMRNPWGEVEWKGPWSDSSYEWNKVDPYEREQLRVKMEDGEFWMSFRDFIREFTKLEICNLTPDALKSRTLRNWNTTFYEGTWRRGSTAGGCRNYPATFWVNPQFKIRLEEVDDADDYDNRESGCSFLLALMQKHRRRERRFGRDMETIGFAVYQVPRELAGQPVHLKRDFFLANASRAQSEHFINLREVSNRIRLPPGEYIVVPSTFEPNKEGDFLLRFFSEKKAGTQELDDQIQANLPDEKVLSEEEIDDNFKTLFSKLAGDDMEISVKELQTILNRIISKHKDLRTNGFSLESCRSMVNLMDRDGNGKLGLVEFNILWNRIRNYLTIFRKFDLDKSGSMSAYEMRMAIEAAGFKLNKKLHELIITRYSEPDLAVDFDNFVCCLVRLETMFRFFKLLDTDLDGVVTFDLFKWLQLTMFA
T1 sequence (O88456 1-268 partner): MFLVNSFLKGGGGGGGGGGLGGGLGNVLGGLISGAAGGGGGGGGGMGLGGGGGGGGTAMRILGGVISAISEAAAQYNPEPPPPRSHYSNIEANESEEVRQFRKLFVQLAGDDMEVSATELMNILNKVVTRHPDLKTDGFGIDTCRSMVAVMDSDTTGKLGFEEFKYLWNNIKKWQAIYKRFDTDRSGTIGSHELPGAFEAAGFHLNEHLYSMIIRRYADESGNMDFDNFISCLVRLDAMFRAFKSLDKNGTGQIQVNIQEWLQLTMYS

[1] = test system: proteolytic cleavage of iNOS in induced DLD-1-5B2 cells; assay: Inhibition of the cleavage of iNOS in situ in induced DLD-1-5B2 cells (Western blot of particulate fraction); format: cell-based, human; conditions: nine hours; for fragmentation (proteolytic cleavage) of iNOS in situ: 24-well plates, 20 μg/well, inhibitor added three hours after start of induction, Western blot FIG. 8; for fragmentation (proteolytic cleavage) of iNOS in situ, larger scale production: T-75 flasks, inhibitor added 3 hours after induction, Western blot FIG. 9
Procedure: DLD-1-5B2 cells, two days past confluence, were induced to express human iNOS using a mixture of recombinant human gamma interferon (rhIFNγ) at 8.33 ng/ml, recombinant human tumor necrosis factor-alpha (rhTNFα) at 3.3 ng/ml, and recombinant human interleukin-1β (rhIL-1β) at 3.3 ng/ml for 12-18 hours before being washed and harvested with trypsin/EDTA. The induced cells were washed three times with sterile PBS, transferred into sterile tubes in a small volume of sterile PBS, and stored frozen at −20° C. until processed for the isolation and fractionation of iNOS.
The frozen, induced DLD-1-5B2 cells were thawed in an ice water bath and lysed by two rapid freeze/thaw cycles using dry ice. The iNOS produced by the induced DLD-1-5B2 cells was then fractionated into a supernatant (soluble) fraction and a particulate fraction. The lysed cells were centrifuged at 16,000×g at 4° C. for 30 minutes to pellet the particulate fraction. The supernatant fraction that contained the soluble iNOS was transferred and stored at −20° C. or used fresh. The pellets were washed once, resuspended in a small volume of ice cold sterile PBS, and the resulting particulate fraction of iNOS was stored at −20° C. or used fresh.
The ability of six specific protease inhibitors to inhibit the cleavage of iNOS in situ was investigated using induced DLD-1-5B2 cells cultured in 24-well plates. Briefly, DLD-1-5B2 cells were cultured in 24-well plates instead of T-75 flasks, as described previously. Two days past confluence, the cells were induced with the same mixture of cytokines, but after three hours, the induction medium was removed from each well, the cells washed with pre-warmed sterile saline, and the medium replaced either with fresh DMEM, or with DMEM containing one of the six protease inhibitors being tested. Each inhibitor was assayed in triplicate at 20 μg/well. Nine hours later (12 hours after the start of the induction) the medium containing the inhibitors was removed, the cells were washed three times with ice-cold PBS, and the 24-well plates were placed on sheets of ice for 10 minutes to loosen the cells from the bottom of the plastic wells. The cells were blown off each well individually using a mechanical pipettor, sterile pipet tips, and ice-cold, sterile PBS. The cells were transferred to individual microfuge tubes on ice, collected by centrifugation, and washed twice with sterile, ice-cold PBS. No trypsin or other protease or EDTA was used during the harvesting or processing of the induced cells. The cells were lysed by 2 freeze/thaw cycles using dry ice and processed as previously described to isolate a supernatant fraction and a particulate fraction by centrifugation at 16,000×g. Both fractions were assayed in duplicate using the chemiluminescent EIA taught in U.S. patent application Ser. No. 09/628,585, and pools of the triplicate samples obtained for each protease inhibitor were analyzed by western blot. No statistically significant difference was found in the amount of iNOS contained in any of the supernatant fractions when compared to other supernatant fractions. Likewise, no statistically significant difference was found in the amount of iNOS contained in any of the particulate fractions when compared to other particulate fractions as measured by the EIA. Further, the distribution of iNOS between the supernatant and particulate fractions was similar for all the samples: the percent of the total iNOS in the supernatant fraction ranged from 55% to 65% and the percent of the total iNOS in the particulate fraction ranged from 35% to 45%. However, as is shown in FIG. 8, a difference in the form of the iNOS was found in the particulate fractions obtained from two of the protease inhibitors.
The quantity of particulate fraction produced was scaled up in T-75 culture flasks for both of these protease inhibitors in order to make enough material to be tested for their individual lethality in our mouse model of sepsis. […]

mouse model of sepsis = assay: Lethality of particulate fractions produced in presence of protease inhibitors, mouse model of sepsis; format: in vivo; conditions: LPS primed mice, N=10 per group; E-64 vs no inhibitor P<0.0002, vs SBTI P<0.002
Procedure: It was reasoned that the conversion of soluble iNOS to particulate iNOS, and thereby to lethal iNOS, might be the result of the proteolytic cleavage of the intact protein molecule. It was hypothesized that decreasing the cleavage process might be beneficial to septic patients since the lethal form of iNOS would be reduced or eliminated. This hypothesis was tested using various protease inhibitors. The loss of lethality produced by specific protease inhibitors was assessed by testing the lethal effects exerted by the administration of the particulate iNOS produced in the presence and absence of protease inhibitors to LPS primed mice.
The three particulate fractions prepared in Example IX were tested for their lethality on groups of mice (5 female and 5 male mice per group, N=10) using our mouse model of sepsis. […] It is believed that treatment of septic patients with a protease inhibitor that decreases or stops the cleavage of iNOS in vivo could serve as an effective therapy for SIRS, sepsis, severe sepsis and septic shock.

In the case of `CCCC[C@@H](C=O)NC(=O)[C@H](CC(C)C)NC(=O)[C@H](CC(C)C)NC(C)=O` [Ac-Leu-Leu-NLeu-al] (Ac-Leu-Leu-[Nle]-aldehyde), the “cleavage of recombinant iNOS protein by calpain” value (from here on “cleavage … by calpain”) (calpain) is listed as “inhibit such cleavage”.

With `CC(C)C[C@H](NC(=O)[C@H]1O[C@@H]1C(=O)O)C(=O)NCCCCN=C(N)N` [E-64] the “fragmentation (proteolytic cleavage) of iNOS in situ” value [1] was “inhibited the proteolytic cleavage of the intact iNOS protein; also recorded: stopped (inhibited) the fragmentation of iNOS in situ”, the “fragmentation (proteolytic cleavage) of iNOS in situ, larger scale production” value [1] was “inhibiting the proteolytic cleavage of intact iNOS protein; also recorded: inhibit the fragmentation of iNOS in situ” and the “lethality of the particulate iNOS fraction isolated from cells induced in the presence of the inhibitor” value (mouse model of sepsis) was “decrease the lethality of the particulate iNOS fraction; also recorded: statistically significant decrease in lethality”. The “cleavage … by calpain” value (calpain) was “inhibit such cleavage”.

With `CC(=O)N[C@@H](CC(C)C)C(=O)N[C@@H](CC(C)C)C(=O)N[C@H](C=O)CCCNC(=N)N` [Leupeptin, leupeptin] the “fragmentation (proteolytic cleavage) of iNOS in situ” value [1] was “stopped (inhibited) the fragmentation of iNOS in situ”, the “fragmentation (proteolytic cleavage) of iNOS in situ” value ([1]; listed as leupeptin) was “inhibited the proteolytic cleavage of the intact iNOS protein” and the “lethality of the particulate iNOS fraction isolated from cells induced in the presence of the inhibitor” value (mouse model of sepsis) was “decrease the lethality of the particulate iNOS fraction”. For the same molecule, the “cleavage … by calpain” value (calpain) was “inhibit such cleavage”.

For `CC(C)CC(=O)N[C@H](C(=O)N[C@H](C(=O)N[C@@H](CC(C)C)[C@@H](O)CC(=O)N[C@@H](C)C(=O)N[C@@H](CC(C)C)[C@@H](O)CC(=O)O)C(C)C)C(C)C` [pepstatin-A] (Isovaleryl-VV[Sta]A[Sta]-OH), the “fragmentation (proteolytic cleavage) of iNOS in situ” value [1] was “did not stop (inhibit) this cleavage process” and the “lethality of the particulate iNOS fraction isolated from cells induced in the presence of the inhibitor” value (mouse model of sepsis) was “had no effect on the lethality of the particulate iNOS fraction”.

For aprotinin, the “fragmentation (proteolytic cleavage) of iNOS in situ” value [1] was “did not stop (inhibit) this cleavage process”.

For “α1-protease inhibitor: protease inhibitor”, the “fragmentation (proteolytic cleavage) of iNOS in situ” value [1] was “did not stop (inhibit) this cleavage process” and the “lethality of the particulate iNOS fraction isolated from cells induced in the presence of the inhibitor” value (mouse model of sepsis) was “had no effect on the lethality of the particulate iNOS fraction”.

B1: soybean trypsin inhibitor: protease inhibitor (protein, UniProt P01070 25-205, looked up)
Trypsin inhibitor A: DFVLDNEGNPLENGGTYYILSDITAFGGIRAAPTGNERCPLTVVQSRNELDKGIGTIISSPYRIRFIAEGHPLSLKFDSFAVIMLCVGIPTEWSVVEDLPEGPAVKIGENKDAMDGWFRLERVSDDEFNNYKLVFCPQQAEDDKCGDIGISIDHDDGTRRLVVSKNKPLVVQFQKLDKESL
For B1, the “fragmentation (proteolytic cleavage) of iNOS in situ” value [1] was “did not stop (inhibit) this cleavage process”, the “fragmentation (proteolytic cleavage) of iNOS in situ, larger scale production” value [1] was “inability of soybean trypsin inhibitor (lane 2) to inhibit this cleavage process” and the “lethality of the particulate iNOS fraction isolated from cells induced in the presence of the inhibitor” value (mouse model of sepsis) was “had no effect on the lethality of the particulate iNOS fraction”.
